ChEMBL document CHEMBL1150424, “Novel azabicyclo[3.2.2]nonane derivatives and their activities against Plasmodium falciparum K1 and Trypanosoma brucei rhodesiense” (Bioorg Med Chem, 2008)

Assays:
[1] = tested on: Trypanosoma brucei rhodesiense; assay: Antitrypanosomal activity against Trypanosoma brucei rhodesiense STIB 900 after 72 hrs by microplate alamar blue assay; type: functional, organism-based; conditions: STIB 900, 72 h
[2] = tested on: L6; assay: Cytotoxicity against rat L6 cells after 72 hrs by microplate alamar blue assay; type: cell-based; conditions: L6, 72 h
[3] = tested on: Plasmodium falciparum; assay: Antiplasmodial activity against chloroquine and pyrimethamine-resistant Plasmodium falciparum K1 after 48 hrs; type: functional, organism-based; conditions: K1, 48 h
[4] = Selectivity index, Ratio of IC50 for L6 cells to IC50 for Trypanosoma brucei rhodesiense STIB 9; type: functional
[5] = Selectivity index, Ratio of IC50 for L6 cells to IC50 for Plasmodium falciparum K1; type: functional

SMILES: CN(C)C12CCNC([C@H](c3ccccc3)C1)[C@H](c1ccccc1)C2
- IC50 [1]: 600 nM

SMILES: CCOC(=O)CN1CCC2(N(C)C)CC(c3ccc(Cl)cc3)C1C(c1ccc(Cl)cc1)C2 (racemic)
- IC50 [2]: 5120 nM
- IC50 [1]: 1780 nM
- IC50 [3]: 700 nM
- Ratio IC50 [4]: 2.88
- Ratio IC50 [5]: 7.31

SMILES: CN(C)C12CCNC(C(c3ccc(C(F)(F)F)cc3)C1)C(c1ccc(C(F)(F)F)cc1)C2 (racemic)
- IC50 [2]: 9440 nM
- IC50 [1]: 80 nM
- IC50 [3]: 850 nM
- Ratio IC50 [4]: 118
- Ratio IC50 [5]: 11.11

SMILES: CN(C)C12CCNC(C(c3ccc(Br)cc3)C1)C(c1ccc(Br)cc1)C2 (racemic)
- IC50 [2]: 9030 nM
- IC50 [1]: 87 nM
- IC50 [3]: 340 nM
- Ratio IC50 [4]: 103.9
- Ratio IC50 [5]: 26.56

SMILES: COc1ccc(C2CC3(N(C)C)CCNC2C(c2ccc(OC)cc2)C3)cc1 (racemic)
- IC50 [2]: 117000 nM
- IC50 [1]: 670 nM
- IC50 [3]: 2690 nM
- Ratio IC50 [4]: 174.7
- Ratio IC50 [5]: 43.52

SMILES: NCCN1CCC2(N3CCCCC3)CC(c3ccc(Cl)cc3)C1C(c1ccc(Cl)cc1)C2 (racemic)
- IC50 [2]: 3370 nM
- IC50 [1]: 76 nM
- IC50 [3]: 150 nM
- Ratio IC50 [4]: 44.34
- Ratio IC50 [5]: 22.47

SMILES: CN(C)C12CCN(CC(N)=O)C(C(c3ccc(Cl)cc3)C1)C(c1ccc(Cl)cc1)C2 (racemic)
- IC50 [2]: 25500 nM
- IC50 [1]: 910 nM
- IC50 [3]: 1110 nM
- Ratio IC50 [4]: 28.07
- Ratio IC50 [5]: 23.01

SMILES: Clc1ccc(C2CC3(N4CCCC4)CCNC2C(c2ccc(Cl)c(Cl)c2)C3)cc1Cl (racemic)
- IC50 [2]: 6870 nM
- IC50 [1]: 150 nM
- IC50 [3]: 280 nM
- Ratio IC50 [4]: 45.8
- Ratio IC50 [5]: 24.54

SMILES: NC(=O)CN1CCC2(N3CCCCC3)CC(c3ccc(Cl)cc3)C1C(c1ccc(Cl)cc1)C2 (racemic)
- IC50 [2]: 23800 nM
- IC50 [1]: 990 nM
- IC50 [3]: 1570 nM
- Ratio IC50 [4]: 24
- Ratio IC50 [5]: 15.13

SMILES: CN(C)C12CCN(CCN)C(C(c3ccc(Cl)cc3)C1)C(c1ccc(Cl)cc1)C2 (racemic)
- IC50 [2]: 10200 nM
- IC50 [1]: 500 nM
- IC50 [3]: 900 nM
- Ratio IC50 [4]: 20.44
- Ratio IC50 [5]: 11.36

SMILES: CCOC(=O)CN1CCC2(N3CCCCC3)CC(c3ccc(Cl)cc3)C1C(c1ccc(Cl)cc1)C2 (racemic)
- IC50 [2]: 13100 nM
- IC50 [1]: 2190 nM
- IC50 [3]: 1010 nM
- Ratio IC50 [4]: 5.97
- Ratio IC50 [5]: 12.94

SMILES: Clc1ccc(C2CC3(N4CCCCC4)CCNC2C(c2ccc(Cl)c(Cl)c2)C3)cc1Cl (racemic)
- IC50 [2]: 8870 nM
- IC50 [1]: 160 nM
- IC50 [3]: 540 nM
- Ratio IC50 [4]: 55.44
- Ratio IC50 [5]: 16.43

SMILES: CN(C)C12CCNC(C(c3cccc4ccccc34)C1)C(c1cccc3ccccc13)C2 (racemic)
- IC50 [2]: 6470 nM
- IC50 [1]: 110 nM
- IC50 [3]: 480 nM
- Ratio IC50 [4]: 58.82
- Ratio IC50 [5]: 13.48

SMILES: NC(=O)CN1CCC2(N3CCCC3)CC(c3ccc(Cl)cc3)C1C(c1ccc(Cl)cc1)C2 (racemic)
- IC50 [2]: 23900 nM
- IC50 [1]: 760 nM
- IC50 [3]: 830 nM
- Ratio IC50 [4]: 31.45
- Ratio IC50 [5]: 28.8

SMILES: Cc1ccc(C2CC3(N(C)C)CCNC2C(c2ccc(C)cc2)C3)cc1 (racemic)
- IC50 [2]: 40500 nM
- IC50 [1]: 120 nM
- IC50 [3]: 450 nM
- Ratio IC50 [4]: 337.2
- Ratio IC50 [5]: 89.91

SMILES: CN(C)C12CCNC(C(c3ccc(F)cc3)C1)C(c1ccc(F)cc1)C2 (racemic)
- IC50 [2]: 186000 nM
- IC50 [1]: 440 nM
- IC50 [3]: 890 nM
- Ratio IC50 [4]: 422.7
- Ratio IC50 [5]: 209

SMILES: OCCN1CCC2(N3CCCCC3)CC(c3ccc(Cl)cc3)C1C(c1ccc(Cl)cc1)C2 (racemic)
- IC50 [2]: 9690 nM
- IC50 [1]: 670 nM
- IC50 [3]: 700 nM
- Ratio IC50 [4]: 14.46
- Ratio IC50 [5]: 13.84

SMILES: CN(C)C12CCNC(C(c3ccc(Cl)c(Cl)c3)C1)C(c1ccc(Cl)c(Cl)c1)C2 (racemic)
- IC50 [2]: 6440 nM
- IC50 [1]: 90 nM
- IC50 [3]: 400 nM
- Ratio IC50 [4]: 71.56
- Ratio IC50 [5]: 16.1

SMILES: NCCN1CCC2(N3CCCC3)CC(c3ccc(Cl)cc3)C1C(c1ccc(Cl)cc1)C2 (racemic)
- IC50 [2]: 4650 nM
- IC50 [1]: 210 nM
- IC50 [3]: 320 nM
- Ratio IC50 [4]: 22.14
- Ratio IC50 [5]: 14.53

SMILES: C[C@@H]1CC[C@H]2[C@@H](C)C(=O)O[C@@H]3O[C@@]4(C)CC[C@@H]1[C@]32OO4 [ARTEMISININ]
- IC50 [3]: 6.4 nM
